Earlier results, collected in US20050232957A1, “Compositions and methods for moisturizing skin” (priority 2004, published 2005).

Settings: person, one month after starting treatment

aquagenic wrinkling of the palms (AWP): developed AWP
Compound: CS(=O)(=O)c1ccc(C2=C(c3ccccc3)C(=O)OC2)cc1 [rofecoxib]
